pIC50: −log10 of the molar value.
Target: PRMT5 (Homo sapiens (Human), UniProt O14744)
Experiment: Inhibitory activity against PRMT5 enzyme by radioisotopic method
Format: biochemical
Conditions: PRMT5 5 nM, [3H]-SAM 0.3 μM, polypeptide substrate GL-27 100 nM, room temperature
Experimental: Test Example 1. Test on the inhibitory activity of the compounds of the invention against PRMT5 enzyme by radioisotopic method
Test method: A 1× enzyme reaction buffer (10 mM Tris 8.0 (Sigma, Cat. No. T2694-1L), 0.01% Tween-20 (Sigma, Cat. No. P2287-100 ML), 1 mM DTT (Sigma, Cat. No. D0632-10G)) was prepared. PRMT5 (Active Motif, Cat. No. 31921) and [3H]—SAM (PerkinElmer, Cat. No. NET155V001MC) were added to the 1×enzyme reaction buffer, to prepare a 25/15× mixed solution (PRMT5 final concentration: 5 nM, [3H]—SAM final concentration: 0.3 μM). 15 μL of this solution was transferred into a 384-well microplate (Corning 384-well Polypropylene Storage Microplates, Cat. No. 3657) with various concentrations of the compounds (DMSO final concentration 1%), and incubated at room temperature for 60 minutes. A polypeptide substrate, GL-27 (Ac-[…]-K (Biotin) (GL Biochem, Cat. No. 342095)), was added into the 1×enzyme reaction buffer to prepare a 25/10× substrate solution. Then 10 μL of the polypeptide substrate solution (final concentration of the polypeptide substrate: 100 nM) was added, a reaction was stirred at room temperature for 120 minutes, and then 5 μL 6× ice cold SAM (Sigma, Cat. No. A7007-100 MG) solution was added to stop the reaction (SAM final concentration: 0.125 mM). 25 µL of the reaction mixture was transferred into a FlashPlate (Streptavidin FlashPlate HTS PLUS, High Capacity, 384-well, Perkin Elmer, Cat. No. SMP410A001PK), and incubated at room temperature for 1 h. After washed three times with distilled water containing 0.1% Tween-20, the microplate was read on a MicroBeta reader for CPM data (Counts Per Minute). […] Then the inhibition rate Inh % (Y) corresponding to each concentration (X) was input in EXCEL, and the IC50 value (the half maximal inhibitory concentration) of each compound was calculated with the XLfit plug-in according to the built-in four-parameter fitting equation Y=Bottom+(Top-Bottom)/(1+(IC50/X)[…]).

Sequence of PRMT5 (O14744 whole entry): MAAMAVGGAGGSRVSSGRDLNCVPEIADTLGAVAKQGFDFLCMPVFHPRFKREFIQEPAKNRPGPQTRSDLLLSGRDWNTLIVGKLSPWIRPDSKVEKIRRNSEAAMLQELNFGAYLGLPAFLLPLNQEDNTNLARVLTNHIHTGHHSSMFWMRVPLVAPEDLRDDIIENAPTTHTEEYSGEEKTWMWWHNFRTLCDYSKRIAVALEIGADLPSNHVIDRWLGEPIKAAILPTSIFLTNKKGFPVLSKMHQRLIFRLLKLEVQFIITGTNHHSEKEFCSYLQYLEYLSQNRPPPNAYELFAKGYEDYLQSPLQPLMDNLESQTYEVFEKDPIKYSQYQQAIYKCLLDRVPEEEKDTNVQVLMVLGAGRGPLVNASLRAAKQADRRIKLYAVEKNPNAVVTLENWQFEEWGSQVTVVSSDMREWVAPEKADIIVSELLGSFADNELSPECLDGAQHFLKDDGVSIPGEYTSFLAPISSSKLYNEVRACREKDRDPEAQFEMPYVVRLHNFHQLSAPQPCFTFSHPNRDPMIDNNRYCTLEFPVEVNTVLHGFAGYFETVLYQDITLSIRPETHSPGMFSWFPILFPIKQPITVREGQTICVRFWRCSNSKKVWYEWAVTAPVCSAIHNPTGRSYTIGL
Sequence of PRMT5 (Q9BQA1 whole entry partner): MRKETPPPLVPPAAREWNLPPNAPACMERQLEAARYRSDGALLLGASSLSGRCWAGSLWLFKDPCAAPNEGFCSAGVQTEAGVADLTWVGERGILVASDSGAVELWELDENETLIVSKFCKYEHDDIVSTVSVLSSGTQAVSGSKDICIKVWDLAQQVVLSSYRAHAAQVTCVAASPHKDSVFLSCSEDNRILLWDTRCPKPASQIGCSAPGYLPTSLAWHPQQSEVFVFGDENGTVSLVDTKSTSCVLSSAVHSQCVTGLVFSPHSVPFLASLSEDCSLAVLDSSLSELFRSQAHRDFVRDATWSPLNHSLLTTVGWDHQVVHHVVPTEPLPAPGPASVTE

SMILES | pIC50
O[C@H]1CN(c2cc(Nc3cccc(C4CC4)c3)ncn2)CC[C@@H]1N1CCc2ccccc2C1 (relative stereo) [Example 35, trans-1-(6-((3-cyclopropylphenyl)amino)pyrimidin-4-yl)-4-(3,4-dihydroisoquinolin-2(1H)-yl)piperidin-3-ol] | > 7.00
CC(=O)N1CCC(Sc2cc(C(=O)N3CC[C@H](N4CCc5ccccc5C4)[C@@H](O)C3)ncn2)CC1 (relative stereo) [Example 119, trans-1-(4-((6-(4-(3,4-dihydroisoquinolin-2(1H)-yl)-3-hydroxypiperidine-1-carbonyl)pyrimidin-4-yl)thio)piperidin-1-yl)ethan-1-one] | > 7.00
CCC(CC)Oc1nc(NC2CCN(C(=O)C3CC(F)(F)C3)CC2)cc(C(=O)N2CC[C@@H](N3CCc4ccccc4C3)[C@H](O)C2)n1 [Example 156, (6-((1-(3,3-difluorocyclobutane-1-carbonyl)piperidin-4-yl)amino)-2-(pentan-3-oxy)pyrimidin-4-yl)((3R,4R)-4-(3,4-dihydroisoquinolin-2(1H)-yl)-3-hydroxy-piperidin-1-yl)ketone] | > 7.00
O[C@H]1CN(c2cc(Nc3cccc4c3OCO4)ncn2)CC[C@@H]1N1CCc2ccccc2C1 [Example 83, trans-1-(6-(benzo[d][1,3]dioxazol-4-ylamino)pyrimidin-4-yl)-4-(3,4-dihydroisoquinolin-2(1H)-yl)piperidin-3-ol] | > 7.00
O=C(C(=O)N1CCC(Nc2cc(C(=O)N3CC[C@H](N4CCc5ccccc5C4)[C@@H](O)C3)ncn2)CC1)C1CC1 (relative stereo) [Example 99, trans-1-cyclopropyl-2-(4-((6-(4-(3,4-dihydroisoquinolin-2(1H)-yl)-3-hydroxypiperidine-1-carbonyl)pyrimidin-4-yl)amino)piperidin-1-yl)ethane-1,2-dione] | > 7.00
CC(=O)N1CCC(Nc2cc(C(=O)N3CC[C@H](N4CCc5ccccc5C4)[C@@H](O)C3)nc(N(C)C)n2)CC1 (relative stereo) [Example 118, trans-1-(4-((6-(4-(3,4-dihydroisoquinolin-2(1H)-yl)-3-hydroxypiperidine-1-carbonyl)-2-(dimethylamino)pyrimidin-4-yl)amino)piperidin-1-yl)ethan-1-one] | > 7.00
CC(C)(C)c1cccc(Nc2cc(N3CC[C@H](N4CCc5ccccc5C4)[C@@H](O)C3)ncn2)c1 (relative stereo) [Example 37, trans-1-(6-((3-t-butylphenyl)amino)pyrimidin-4-yl)-4-(3,4-dihydroisoquinolin-2(1H)-yl)piperidin-3-ol] | > 7.00
COc1ccc(Nc2cc(N3CC[C@H](N4CCc5ccccc5C4)[C@@H](O)C3)ncn2)cc1 (relative stereo) [Example 55, trans-4-(3,4-dihydroisoquinolin-2(1H)-yl)-1-(6-((4-methoxyphenyl)amino)pyrimidin-4-yl)piperidin-3-ol] | > 7.00
CNC(=O)c1ccc(Nc2cc(C(=O)N3CC[C@H](N4CCc5ccccc5C4)[C@@H](O)C3)ncn2)cc1 (relative stereo) [Example 131, trans-4-((6-(4-(3,4-dihydroisoquinolin-2(1H)-yl)-3-hydroxypiperidine-1-carbonyl)pyrimidin-4-yl)amino)-N-methylbenzamide] | > 7.00
O[C@H]1CN(c2cc(Nc3ccccc3-c3ccccc3)ncn2)CC[C@@H]1N1CCc2ccccc2C1 (relative stereo) [Example 66, trans-1-(6-([1,1′-biphenyl]-2-ylamino)pyrimidin-4-yl)-4-(3,4-dihydro-isoquinolin-2(1H)-yl)piperidin-3-ol] | > 7.00
CC(=O)N1CCC(Nc2cc(C(=O)N3CC[C@H](N4CCc5ccccc5C4)[C@@H](O)C3)nc(C)n2)CC1 (relative stereo) [Example 111, trans-1-(4-((6-(4-(3,4-dihydroisoquinolin-2(1H)-yl)-3-hydroxypiperidine-1-carbonyl)-2-methylpyrimidin-4-yl)amino)piperidin-1-yl)ethan-1-one] | > 7.00
CC(=O)N1CCC(Nc2cc(C(=O)N3CC[C@@H](N4CCc5ccccc5C4)[C@H](O)C3)nc([S+]([O-])C(C)C)n2)CC1 (stereo partly drawn) [Example 157, 1-(4-((6-((3R,4R)-4-(3,4-dihydroisoquinolin-2(1H)-yl)-3-hydroxypiperidine-1-carbonyl)-2-(isopropylsulfinyl)pyrimidin-4-yl)amino)piperidin-1-yl)ethan-1-one] | > 7.00
O[C@@H]1CN(c2cc(Nc3cccc(N4CCCC4)c3)ncn2)CC[C@H]1N1CCc2ccccc2C1 (relative stereo) [Example 67, trans-4-(3,4-dihydroisoquinolin-2(1H)-yl)-1-(6-((3-(pyrrolidin-1-yl)phenyl)amino)pyrimidin-4-yl)piperidin-3-ol] | > 7.00
CC(=O)N1CCC(Nc2cc(C(=O)N3CC[C@H](N4CCc5ccccc5C4)[C@@H](O)C3)c(C(F)(F)F)cn2)CC1 (relative stereo) [Example 102, trans-1-(4-((4-(4-(3,4-dihydroisoquinolin-2(1H)-yl)-3-hydroxypiperidine-1-carbonyl)-5-(trifluoromethyl)pyridin-2-yl)amino)piperidin-1-yl)ethan-1-one] | > 7.00

More lines, now with the values ahead:

pIC50 | SMILES
> 7.00 | O[C@H]1CN(c2cc(Nc3ccccc3C3CC3)ncn2)CC[C@@H]1N1CCc2ccccc2C1 (relative stereo) [Example 51, trans-4-(3,4-dihydroisoquinolin-2(1H)-yl)-1-(6-((2-cyclopropylphenyl)amino)pyrimidin-4-yl)piperidin-3-ol]
> 7.00 | CC(=O)N1CCC(Nc2cc(C(=O)N3CC[C@@H](N4CCc5ccccc5C4)[C@H](O)C3)nc(N3CCN(C)CC3)n2)CC1 [Example 149, 1-(4-((6-((3R,4R)-4-(3,4-dihydroisoquinolin-2(1H)-yl)-3-hydroxypiperidine-1-carbonyl)-2-(4-methylpiperazin-1-yl)pyrimidin-4-yl)amino)piperidin-1-yl)ethan-1-one]
> 7.00 | CC(=O)N1CCC(Nc2cc(C(=O)N3CC[C@H](N4CCc5ccccc5C4)[C@@H](O)C3)nc(-c3ccncc3)n2)CC1 [Example 139]
> 7.00 | O=C(C(=O)N1CCC2(CC1)CC(Nc1cc(C(=O)N3CC[C@H](N4CCc5ccccc5C4)[C@@H](O)C3)ncn1)C2)C1CC1 (relative stereo) [Example 98, 1-cyclopropyl-2-(2-((6-(trans-4-(3,4-dihydroisoquinolin-2(1H)-yl)-3-hydroxypiperidine-1-carbonyl)pyrimidin-4-yl)amino)-7-azaspiro[3.5]nonan-7-yl)ethane-1,2-dione]
> 7.00 | COc1cc(F)ccc1Nc1cc(N2CC[C@H](N3CCc4ccccc4C3)[C@@H](O)C2)ncn1 (relative stereo) [Example 93, trans-4-(3,4-dihydroisoquinolin-2(1H)-yl)-1-(6-((4-fluoro-2-methoxyphenyl)amino)pyrimidin-4-yl)piperidin-3-ol]
> 7.00 | O[C@@H]1CN(c2cc(Nc3cccc(N4CCOCC4)c3)ncn2)CC[C@H]1N1CCc2ccccc2C1 (relative stereo) [Example 73, trans-4-(3,4-dihydroisoquinolin-2(1H)-yl)-1-(6-((3-morpholinophenyl)amino)pyrimidin-4-yl)piperidin-3-ol]
> 7.00 | CC(=O)N1CCC(Nc2cc(C(=O)N3CC[C@H](N4CCc5ccccc5C4)[C@@H](O)C3)nc(N3CCOCC3)n2)CC1 (relative stereo) [Example 144, 1-(4-((6-(trans-4-(3,4-dihydroisoquinolin-2(1H)-yl)-3-hydroxypiperidine-1-carbonyl)-2-morpholinopyrimidin-4-yl)amino)piperidin-1-yl)ethan-1-one]
> 7.00 | CC(C)(C)c1ccccc1Nc1cc(N2CC[C@H](N3CCc4ccccc4C3)[C@@H](O)C2)ncn1 (relative stereo) [Example 56, trans-4-(3,4-dihydroisoquinolin-2(1H)-yl)-1-(6-((2-t-butylphenyl)amino)pyrimidin-4-yl)piperidin-3-ol]
> 7.00 | COCC(=O)N1CCC(Nc2cc(C(=O)N3CC[C@H](N4CCc5ccccc5C4)[C@@H](O)C3)ncn2)CC1 (relative stereo) [Example 113, 1-(4-((6-(trans-4-(3,4-dihydroisoquinolin-2(1H)-yl)-3-hydroxypiperidine-1-carbonyl)pyrimidin-4-yl)amino)piperidin-1-yl)-2-methoxyethan-1-one]
> 7.00 | CC(=O)N1CCC(Nc2cc(C(=O)N3CC[C@H](N4CCc5ccccc5C4)[C@@H](O)C3)nc(Cl)n2)CC1 (relative stereo) [Example 117, trans-1-(4-((2-chloro-6-(4-(3,4-dihydroisoquinolin-2(1H)-yl)-3-hydroxypiperidine-1-carbonyl)pyrimidin-4-yl)amino)piperidin-1-yl)ethan-1-one]

— patent publication US20240336593A1, “Compound Having Antitumor Activity And Use Thereof” (lnnovStoneTherapeutics Limited, priority 2020, published 2024)
